In US20090029366A1 (priority 2007, published 2009):

Target: T1, human HCN4 channel (Homo sapiens, UniProt Q9Y3Q4)
T1 construct: expressed in transfected cells; host or cells: CHO-K1
T1 sequence (Q9Y3Q4 1-1203): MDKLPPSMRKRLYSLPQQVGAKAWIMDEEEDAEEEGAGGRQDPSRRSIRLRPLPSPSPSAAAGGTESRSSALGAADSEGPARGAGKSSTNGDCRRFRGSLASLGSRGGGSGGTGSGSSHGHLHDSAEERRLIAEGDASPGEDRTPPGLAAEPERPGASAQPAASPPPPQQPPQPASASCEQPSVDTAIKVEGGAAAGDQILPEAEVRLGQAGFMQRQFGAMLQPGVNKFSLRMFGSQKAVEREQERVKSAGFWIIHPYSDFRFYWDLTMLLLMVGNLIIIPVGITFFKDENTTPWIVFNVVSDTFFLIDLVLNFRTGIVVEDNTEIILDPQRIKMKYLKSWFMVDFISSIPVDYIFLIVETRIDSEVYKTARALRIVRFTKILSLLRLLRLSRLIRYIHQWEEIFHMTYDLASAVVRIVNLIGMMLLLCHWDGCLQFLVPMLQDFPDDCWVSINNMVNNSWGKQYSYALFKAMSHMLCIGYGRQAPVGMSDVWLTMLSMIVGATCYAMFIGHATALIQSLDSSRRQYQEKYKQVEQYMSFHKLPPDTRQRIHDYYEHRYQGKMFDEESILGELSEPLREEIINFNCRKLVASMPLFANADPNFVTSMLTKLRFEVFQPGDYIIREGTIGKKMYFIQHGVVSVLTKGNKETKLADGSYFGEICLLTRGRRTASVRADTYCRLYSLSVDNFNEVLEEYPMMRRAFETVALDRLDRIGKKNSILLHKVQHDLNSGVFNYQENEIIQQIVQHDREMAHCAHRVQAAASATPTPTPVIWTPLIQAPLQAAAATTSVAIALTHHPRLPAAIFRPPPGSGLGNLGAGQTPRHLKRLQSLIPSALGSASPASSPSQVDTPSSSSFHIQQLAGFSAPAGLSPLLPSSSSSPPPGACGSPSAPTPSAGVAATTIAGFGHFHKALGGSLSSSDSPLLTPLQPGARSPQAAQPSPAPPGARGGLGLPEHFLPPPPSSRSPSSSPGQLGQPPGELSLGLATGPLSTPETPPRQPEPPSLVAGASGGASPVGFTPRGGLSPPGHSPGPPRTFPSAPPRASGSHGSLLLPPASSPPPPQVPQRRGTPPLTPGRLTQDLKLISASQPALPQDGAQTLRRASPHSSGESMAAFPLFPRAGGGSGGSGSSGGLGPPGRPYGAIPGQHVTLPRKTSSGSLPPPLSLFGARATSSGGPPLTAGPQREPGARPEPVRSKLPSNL
Experiment: MPSD FLIPR 384 hyperpolarization assay, HCN4 (CHO-K1 cells)
Assay type: cell-based
Settings: 50 μM ZD7288
Protocol: CHO-K1 cells stably expressing a human HCN4 channel were plated as described in Example 3 above. Using a FLIPR®^96 assay, control cells were incubated in 30 μl/well HBSS (Gibco catalog 14025-092 containing NaCl, 137.93; KCl, 5.33; KH2PO4, 0.44; NaHCO3, 4.17; Na2HPO4, 0.34; CaCl2, 1.26; MgCl2, 0.49; MgSO4, 0.41; D-Glucose 5.56). The HBSS was supplemented with MPSD (1 vial/0.5 L). The saline for test cells additionally included 30 μM of the channel inhibitor ZD7288 dissolved in <1.0% DMSO. After 15-30 minutes incubation, background fluorescence was recorded on FLIPR and the membrane hyperpolarization induced by the addition of 200 μl sodium/potassium diluent solution (140 Choline-Cl, 1.0 mM CaCl2, 1.0 mM CaCl2, 10 mM HEPES, 5.5 mM D-glucose, pH 7.3 with TRIS-OH), supplemented with MPSD (1 vial/0.5 L) was recorded on FLIPR.
The FLIPR®^384 well plate was prepared similarly to the FLIPR®^96 well plate except that the amounts of HBSS (optionally, HBSS was supplemented with about 25 to 50 mM of KCl to further enhance assay window) and the sodium/potassium diluent solution were adjusted to keep the dilution ratio of these solutions between about 1:10-1:30, respectively. Additionally, 50 μM ZD7288 was added to the saline containing test cells. […] In addition, less than about 0.02% false positives or false negatives were observed (covariance 11.03 and 12.05, data not shown).

CCN(c1ccccc1)c1cc(=NC)n(C)c(C)n1.Cl [ZD7288]
blockade of hyperpolarization of HCN4 channels: effectively blocked hyperpolarization
